Patent US20040126792A1, “Synthesis and applications of trinucleotide pCpCpA-3'-NH-aminoacyl derivatives” (priority 2002, published 2004)

Columns and labels:
[1] = tested on: S30 extract peptidyltransferase; experiment: Peptidyltransferase gel-shift assay in the presence of antibiotics, S30 extract; assay type: biochemical, E. coli; conditions: 100 μM antibiotic, substrates CCA-Met-Biotin and 32P-CCA-NH-Phe, 37° C.
Description: (§1) Assay reactions were carried out with: 50S or 70S subunits from the bacterial ribosome (prepared from E. coli MRE600), or S30 extract (purchased from Promega); 50 μM CCA-Met-Biotin or tRNA-Met-Biotin; trace amounts of ^32P-CCA-NH-Phe (˜0.5 nM); 100 μM antibiotic in the presence of 50 mM Tris•HCl (pH 7.5); 35 mM MgCl2; 100 mM NH4Cl; and 1000 mM KCl, at 37° C. For each reaction, the same amount of 50S or 70S (10 pmol) was included, but the S30 concentration was not determined.
(§2) Reactions were initiated by addition of ^32P-CCA-NH-Phe. A 1-μL aliquot of the reaction mixture was removed at specific time points, quenched with 2 μL quench buffer (formamide +0.05% xylene cyanol), and loaded on 24%/7.5 M urea polyacrylamide denaturing gel.
(§3) The substrates used in these reactions were CCA-Met-Biotin and ^32P-CCA-NH-Phe. The lower band corresponds to the labeled ^32P-CCA-NH-Phe and the top band is the dipeptide product (^32P-CCA-NH-Phe-Met-Biotin).

[2] = tested on: 70S ribosome peptidyltransferase; experiment: Peptidyltransferase activity assay in the presence of antibiotics, 70S ribosome; conditions: 100 μM antibiotic; 70S versus 50S
Description: as §1, §2, §3
(§4) Reaction conditions for these studies were the same as described above.

[3] = tested on: 50S ribosome peptidyltransferase; experiment: Peptidyltransferase activity assay in the presence of antibiotics, 50S ribosome; conditions: 100 μM antibiotic, tRNA-Met-Biotin versus CCA-Met-Biotin substrate
Description: as §1
Reactions were initiated by addition of ^32P-CCA-NH-Phe. A 1-μL aliquot of the reaction mixture was removed at specific time points, quenched with 2 μL quench buffer (formamide +0.05% xylene cyanol), and loaded on 24%/7.5 M urea polyacrylamide denaturing gel. Reaction products were quantitated with a Molecular Dynamics PhosphorImager™, and the fraction of individual product relative to total reactants was plotted against time (see FIGS. 11-14).
as §4

| SMILES | Inhibition of peptidyltransferase activity (gel-shift, FIG. 10A) [1] | Inhibition of 70S reactions compared with 50S reactions [2] | Effect on activity of 50S-tRNA compared with 50S-CCA [3] |
| --- | --- | --- | --- |
| O=C(N[C@H](CO)[C@H](O)c1ccc([N+](=O)[O-])cc1)C(Cl)Cl [chloramphenicol] | greatly inhibited | – | – |
| CC[C@H]1OC(=O)[C@H](C)[C@@H](O[C@H]2C[C@@](C)(OC)[C@@H](O)[C@H](C)O2)[C@H](C)[C@@H](O[C@@H]2O[C@H](C)C[C@H](N(C)C)[C@H]2O)[C@](C)(O)C[C@@H](C)C(=O)[C@H](C)[C@@H](O)[C@]1(C)O [erythromycin] | greatly inhibited | much more strongly than 50S reactions | – |
| COc1ccc(C[C@H](N)C(=O)N[C@H]2[C@@H](O)[C@H](n3cnc4c(N(C)C)ncnc43)O[C@@H]2CO)cc1 [puromycin] | does not significantly inhibit | much more strongly than 50S reactions | – |
| CSC[S@+]([O-])C[C@H](CO)NC(=O)/C=C/c1c(C)[nH]c(=O)[nH]c1=O [sparsomycin] | greatly inhibited | – | much less unaffected than that of 50S-CCA |
| [H]/N=C(/N)N[C@H]1[C@H](O)[C@@H](O)[C@H](O[C@@H]2O[C@@H](C)[C@](O)(C=O)[C@H]2O[C@@H]2O[C@@H](CO)[C@H](O)[C@@H](O)[C@@H]2NC)[C@@H](N/C(N)=N\[H])[C@@H]1O [streptomycin] | not inhibited | – | – |
